In article PMC9942557, “Bolaamphiphile Analogues of 12-bis-THA Cl2 Are Potent Antimicrobial Therapeutics with Distinct Mechanisms of Action against Bacterial, Mycobacterial, and Fungal Pathogens” (mSphere, 2022):

Assays:
[1] = Maximum solubility in water; format: physicochemical; details: ultrapure water, 40 °C, thermodynamic from solid
Protocol: Stock solutions of bolalipids were prepared by dispersing the powder in ultrapure water, then stirring vigorously by vortexing, and sonicating in a 40°C bath sonicator for 20 min. The concentration of each stock solution corresponds to the highest solubility achieved in water for each bolalipid, using the method described above. DLS experiments were performed on a Malvern Zetasizer Nano (Malvern Instruments, Worcestershire, UK) in back-scattering mode at 20°C. There were three independent measurements of each sample and 12 runs for each measurement, with 10 s taken for each run. The attenuator index and measurement position were automatically adjusted. Fifty microliters of each sample was transferred into polystyrene semi-microcuvettes for determination of UV and visible wavelengths (Sarstedt).

[2] = tested on: Prevotella bivia NCTC 11156; assay: Anaerobic broth microdilution MIC (BHI, 5% horse serum); format: cell-based; details: NCTC11156, read-out: MIC
[3] = tested on: G. vaginalis KC2; assay: as above; format: cell-based, Gardnerella vaginalis; details: Gardnerella vaginalis, read-out: MIC
[4] = tested on: G. vaginalis KC3; assay: as above; format: cell-based, Gardnerella vaginalis; details: Gardnerella vaginalis, read-out: MIC
[5] = tested on: G. vaginalis KC1; assay: as above; format: cell-based, Gardnerella vaginalis; details: Gardnerella vaginalis, read-out: MIC
[6] = tested on: G. vaginalis NCTC 10287; assay: as above; format: cell-based, Gardnerella vaginalis; details: Gardnerella vaginalis, NCTC10287, read-out: MIC
[7] = tested on: Candida auris TGD1912; assay: MIC; format: cell-based
[8] = tested on: Candida auris TGD1912; assay: Fluorescence microscopy, accumulation of bolalipid; format: cell-based; details: 0.18 mM (approximately 54× the MIC), 30 min
Protocol: Candida auris cells were picked from a yeast extract-peptone-dextrose (YPD) agar plate and resuspended in 35 mL of sterile distilled water (dH2O). After resuspension, 150 μL of cells was inoculated in 100 mL of YPD broth overnight at 30°C with shaking at 130 rpm and grown to exponential phase (5 × 10^6 to 5 × 10^7 cells/mL). Cells (6 × 10^8) were washed in standard defined (SD) medium twice (pelleted at 1,500 × g for 5 min and resuspended in 10 mL SD medium [yeast nitrogen base without the amino acids D-glucose, methionine, adenine, histidine, tryptophan, uracil, leucine, and lysine]), followed by resuspension in 1 mL SD medium containing 0.18 mM Penta-bola, and incubated at 37°C for 30 min. After treatment with the Penta-bola, cells were pelleted and resuspended in Hanks’ balanced salt solution (HBSS) and 50 μg/mL CF594 concanavalin A (Biotium). After incubation at 37°C for 30 min, cells were washed once with HBSS and resuspended in 1 mL of HBSS. Polysine adhesion slides (Thermo Scientific) were prepared by spreading 20 μL of treated cells and allowing them to dry for 30 min before adding one drop of Fluoromount (Sigma-Aldrich, Germany) aqueous mounting medium. Fluorescence images were acquired using a Leica fluorescence microscope at ×100 magnification. […]

[9] = tested on: P. aeruginosa PAO1; assay: Fluorescence microscopy, penetration of bolalipid; format: cell-based, Pseudomonas aeruginosa; details: 180 μM
Protocol: P. aeruginosa PAO1 was incubated with CM2 alone or in combination with tobramycin. A single colony of bacteria was collected from a Luria-Bertani (LB) agar plate and resuspended in 10 mL of LB broth overnight at 37°C, with shaking at 150 rpm. The following morning, a 2% (vol/vol) dilution was done in fresh LB broth, and the bacteria suspension was grown at 37°C with shaking at 150 rpm until it reached an OD600 of 0.3. The surface of microscopy SuperFrost glass slides (Thermo Fisher Scientific, Massachusetts, USA) was marked with a PAP pen, in order to design two square confined areas per glass slide, where the bacteria were deposited. One hundred microliters of bacterial suspension was transferred into sterile Eppendorf tubes and incubated with equal volumes of bolalipid suspension for 1 h. The bolalipid final concentration was 0.18 mM. The fluorescent Alexa Fluor 555 conjugate of wheat germ agglutinin (WGA) (Thermo Fisher Scientific) lectin membrane dye (10 μg/mL final concentration) was added to the suspension, and the bacteria were incubated for 45 min more. At the end of incubation, 100 μL was spotted in each half of the SuperFrost glass slides and incubated for 45 min more. Glass slides were then washed three times with phosphate-buffered saline (PBS) and left to dry for 5 min before addition of one drop of Fluoromount (Sigma-Aldrich, Germany) aqueous mounting medium. […]

Nc1c2c([n+](CCCCCCCCCCCC[n+]3c4c(c(N)c5ccccc53)CCCCCC4)c3ccccc13)CCCCCC2 [Octa-bola]
solubility at 20 min [1]: 360 µM

Cc1cc(N)c2ccccc2[n+]1CCCCCCCCCC[n+]1c(C)cc(N)c2ccccc21 [Dequalinium, dequalinium chloride, reference compound]
MIC [2]: 2 µg/mL | MIC [3]: 4 µg/mL | MIC [4]: 2 to 4 µg/mL | MIC [5]: 2 µg/mL | MIC [6]: 2 µg/mL

Nc1c2c([n+](CCCCCCCCCCCC[n+]3c4c(c(N)c5ccccc53)CCC4)c3ccccc13)CCC2 [Penta-bola]
MIC [7]: 2 µg/mL | cell integrity / accumulation of bolalipid [8]: the cells remained intact

Nc1c2c([n+](CCCCCCCCCCCC[n+]3c4c(c(N)c5ccccc53)CCCC4)c3ccccc13)CCCC2 [12-bis-THA Cl2, 12,12′-(Dodecane-1,12-diyl)-bis-(9-amino-1,2,3,4-tetrahydroacridinium) chloride]
bacterial integrity / accumulation of bolalipid [9]: the bacteria appeared intact and the bolalipid was concentrated within the cells
